Data set [1] deals with SH-S5Y5 neuroblastoma cells. Description: Cell viability (MTT) in response to Aβ, in vitro model of Alzheimer's disease. The data set is classed as cell-based. To be noted: 20 μM Aβ, 24 h. The text has this: (§1) The SH-S5Y5 neuroblastoma cell line was used for pre-clinical analysis. The SH-S5Y5 cell line is commonly used as a model for neurodegenerative disorders as the cells can be converted to various types of functional neurons by the addition of specific compounds (see, e.g., Xicoy et al., 2017, Molecular Neurodegeneration, 12: 10). In addition, the SH-S5Y5 cell line has been used widely in experimental neurological studies, including analysis of neuronal differentiation, metabolism, and function related to neurodegenerative processes, neurotoxicity and neuroprotection (see, e.g., Datki et al., 2003, Brain Research Bulletin, 62(3): 22-229; and Xie et al., 2010, Chinese Medical Journal, 123(8): 1086-1092).
100 μL MTT reagent was added to each well (final concentration 0.5 mg/mL). Cells were then incubated at 37 °C, 5% CO2 for 4 hours. Solubilization buffer (100 μL) was then added to each well and further incubated at 37 °C, 5% CO2 for 24 hours. Absorbance was then measured by spectrophotometer at 550-600 nm and background corrected at 650 nm.
Amyloid-β (Aβ; 1 mg) was dissolved in 2 mL of 1,1,1,3,3,3-hexafluoro-2-propanol (HFIP). An additional 200 μL of HFIP was then added due to volatility. The Aβ was sealed with parafilm and vortexed for 30 seconds before aliquoting at 100 μL per 1.5 mL tube. HFIP was then evaporated in fume hood for 8 hours. Tubes were then sealed with lid and parafilm and stored at −80 °C. Prior to use, Aβ was reconstituted in DMSO to a final volume of 10% v/v for 10-15 min at RT and vortexed every 3-5 min. F-12 medium was then added to a final volume of 90% v/v. Aβ was then stored at 4 °C for 24 hours and vortexed before use.
Cells were seeded in 96-well microplates and incubated 37 °C, 5% CO2 for 24 hours.

The test system of a further data set is SH-SY5Y cells. Description: Gene expression analysis by RNA sequencing in the presence of Aβ. The class given is cell-based, human.
Description: as §1
Total RNA was isolated from cells using TRIzol in accordance with the manufacturer's instructions (Invitrogen, Carlsbad, CA, USA). RNA concentration and quality was assessed using a NanoDrop spectrophotometer. Only samples with a 260/280 ratio of ≥1.8 were used for further analysis.
Messenger RNA (mRNA) was purified from total RNA using poly-T oligo attached magnetic beads. After fragmentation, cDNA synthesis was performed in accordance with the manufacturer's instructions (Illumina, San Diego, CA, USA) to generate a directional and non-directional library. Libraries were checked with Qubit, real-time PCR was performed for quantification, and size distribution detection was performed using the Bioanalyzer. Quantified libraries were pooled and sequenced on an Illumina platform, according to the manufacturer's instructions.
Raw reads were filtered and mapped to human reference genome (GRCh38/hg38) using HISAT2. Differential gene expression analysis was performed using R Package DEG seq2. […] Manual annotation of genes previously associated with specific neurodegenerative disorders and dementias was performed following a text mining analysis.

The conditions of data set [2]: oral administration; cited from earlier work.

As for `C=C(C)[C@@H]1CCC(C)=C[C@H]1c1c(O)cc(CCCCC)cc1O` [CBD, Cannabidiol], the entries for the “Cell viability as measured by MTT” value in data set [1] (CBD 2.5 μM), in data set [1] (CBD 5 μM) and in data set [1] (CBD 10 μM) were 0.011, 0.031 and 0.116, respectively. The MFSD8 expression in the data set with SH-SY5Y cells is reported as 2.603 FPKM. In addition, the MBP expression in the data set with SH-SY5Y cells (5 μM CBD, Aβ, control 0.089, P 0.012) amounted to 0.046 FPKM. For the same compound, the GBE1 expression in the data set on SH-SY5Y cells (5 μM CBD, Aβ, control 1.194, P 0.037) is recorded as 1.305 FPKM. The ERCC4 expression with SH-SY5Y cells (5 μM CBD, Aβ, control 1.970, P 0.037) turned out to be 2.197 FPKM. Moreover, in the data set with SH-SY5Y cells (5 μM CBD, Aβ, control 2.846, P 0.023), the MT-TW expression is listed as 4.309 FPKM. In the data set with SH-SY5Y cells (5 μM CBD, Aβ, control 3.872, P 0.013), the TRAPPC2 expression was determined as 4.267 FPKM. In the data set with SH-SY5Y cells (5 μM CBD, Aβ, control 7.014, P 0.046), the SLC20A2 expression is recorded as 7.447 FPKM. In addition, in the data set with SH-SY5Y cells (5 μM CBD, Aβ, control 7.365, P 0.012), the IRF6 expression is given as 7.774 FPKM. For the same compound, the LAMP1 expression with SH-SY5Y cells (5 μM CBD, Aβ, control 34.350, P 0.018) is given as 31.452 FPKM. For the same compound, the TAF15 expression turned out to be 17.887 FPKM with SH-SY5Y cells (5 μM CBD, Aβ, first TAF15 line, control 14.968, P 0.046) and 17.095 FPKM with SH-SY5Y cells (5 μM CBD, Aβ, second TAF15 line, control 15.869, P 0.046).
For `COc1ccc2c3c1O[C@H]1C[C@@H](O)C=C[C@@]31CCN(C)C2` [Galantamine], the bioavailability entry in data set [2] is reported as “high bioavailability”.
Consider `CCN(C)C(=O)Oc1cccc([C@H](C)N(C)C)c1` [Rivastigmine], for which, in data set [2], the bioavailability result is reported as “high bioavailability”.
